Tests used:
SNU475 = test: SRB cytotoxicity assay; type: cell-based; conditions: Homo sapiens, SNU-475, 72 h treatment
Procedure: (§1) HepG2, FOCUS, Hep3B, Mahlavu, Huh7, Hep40, and PLC-PRF-5 hepatocellular carcinoma cells; MCF-7, MDA-MB-231, MDA-MB-468, SKBR3, and ZR-75 breast cancer cells; and normal-like epithelial MCF-10A breast cells were cultured in low-glucose Dulbecco’s modified Eagle’s medium (DMEM) (Biological Industries-BI) supplemented with 10% fetal bovine serum (FBS) (Gibco/Thermo Fisher Scientific), 2 mM L-Glutamine (Gibco/Thermo Fisher Scientific), 100 Units/mL Penicillin/Streptomycin, and 0.1 mM non-essential amino acid (Gibco/Thermo Fisher Scientific). SNU475 hepatocellular carcinoma cells were maintained in RPMI (Biological Industries-BI) supplemented with 10% fetal bovine serum (FBS) (Gibco/Thermo Fisher Scientific), L-Glutamine (Gibco/Thermo Fisher Scientific), and 100 Units/mL Penicillin/Streptomycin, while ZR-75 breast cancer cells were cultured RPMI (Biological Industries-BI) supplemented with 10% fetal bovine serum (FBS) (Gibco/Thermo Fisher Scientific), 1× sodium pyruvate, and %4.5 glucose. Normal-like MCF-10A breast cells were sustained in DMEM/HAM’S F12 (Hyclone) supplemented with 10% fetal bovine serum (FBS) (Gibco/Thermo Fisher Scientific), EGF (20 ng/mL), Hydrocortisone ([…]), cholera toxin (100 ng/mL), insulin (10 μg/mL), and 100 Units/mL Penicillin/Streptomycin. The cells were cultivated at 37 °C in a humidified incubator under 5% CO2.
(§2) Mahlavu, FOCUS, SNU475 (1000 cell/well in 150 μL/well); Huh7, MCF7 (2500 cell/well in 150 μL/well); HepG2, Hep3B, SKBR3 (3000 cell/well in 150 μL/well); PLC-PRF-5, Hep40 (5000 cell/well in 150 μL/well); MDA-MB-231, MDA-MB-468, MCF10A (6000 cell/well in 150 μL/well); and ZR-75 (7500 cell/well in 150 μL/well) were cultured in 96-well plates and were inoculated in an incubator for 24 hours. The compounds were dissolved in dimethyl sulfoxide (DMSO) (Sigma, St Louis, MO) as a 20 mM stock solution. The treatment of cells with the compounds was done in a concentration range starting from 40 to 2.5 μM. The compounds which were below 2.5 μM were tested in a concentration range from 2.5 to 0.15 μM. End of the 72h compound treatment, the cells were fixed using 10% (v/v) trichloroacetic acid (MERCK) for an hour and washed with ddH2O, and left for air-drying. The fixed plates were stained with 50 μL of sulforhodamine B (SRB) solution (Sigma) at RT for 10 min. To remove unbound SRB dye, acetic acid was used to wash cells three times and left for drying. The protein-bound SRB was solubilized with 10 mM Tris-base (Sigma) and their absorbance was measured with a 96-well plate reader at 515 nm wavelength (ELx800, Biotek). The IC50 values of compounds were calculated in comparison with control group DMSO. Data with R^2 values larger than 0.9 are considered significant.

Hep3B = test: SRB cytotoxicity assay; type: cell-based; conditions: Homo sapiens, 72 h treatment
Procedure: as §1, §2

MDA-MB231 = test: SRB cytotoxicity assay; type: cell-based; conditions: Homo sapiens, MDA-MB-231, 72 h treatment
Procedure: as §1, §2

HepG2 = test: SRB cytotoxicity assay; type: cell-based; conditions: Homo sapiens, 72 h treatment
Procedure: as §1, §2

SKBR3 = test: SRB cytotoxicity assay; type: cell-based; conditions: Homo sapiens, SK-BR-3, 72 h treatment
Procedure: as §1, §2

PARP = PARP cleavage western blotting; type: cell-based, human; conditions: 5 μM, 48 h; MCF7, MDA-MB-231, Mahlavu; except for 11 treated MCF7 and Huh7 cells
Procedure: Cells were treated for 5 μM compounds 11 and 85 or control (DMSO). The treated cells were collected with a scraper at end of 48 h incubation and lysates were prepared. Protein concentration was calculated with a BCA assay. The protein levels were analyzed using protein electrophoresis according to the manufacturer’s protocol for near-infrared (NIR) Western Blot analysis (Mini-PROTEAN Tetra Cell Systems, Bio-Rad). The samples (40 μg /well) were loaded onto TGX precast gels, and protein transfer from gel to an LF-PVDF membrane was done using Trans-Blot Turbo System (Bio-Rad). Primary antibodies (PARP, CST, #9532S) and Calnexin (CST, #2679) and secondary antibodies IRDye 680RD Goat Anti Rabbit (Li-Cor, # 92668071) and IRDye- 800CW Goat Anti Rabbit (Licor, # 926e32211) were used for western blotting, and the proteins were monitored in fluorescence system using Odyssey CLx- LICOR imaging system.[32]

MCF10A = test: SRB cytotoxicity assay, immortalized normal breast epithelial cells; type: cell-based; conditions: Homo sapiens, MCF-10A, 72 h treatment, non-tumorigenic immortalized breast epithelial cells
Procedure: HepG2, FOCUS, Hep3B, Mahlavu, Huh7, Hep40, and PLC-PRF-5 hepatocellular carcinoma cells; MCF-7, MDA-MB-231, MDA-MB-468, SKBR3, and ZR-75 breast cancer cells; and normal-like epithelial MCF-10A breast cells were cultured in low-glucose Dulbecco’s modified Eagle’s medium (DMEM) (Biological Industries-BI) supplemented with 10% fetal bovine serum (FBS) (Gibco/Thermo Fisher Scientific), 2 mM L-Glutamine (Gibco/Thermo Fisher Scientific), 100 Units/mL Penicillin/Streptomycin, and 0.1 mM non-essential amino acid (Gibco/Thermo Fisher Scientific). […]
Mahlavu, FOCUS, SNU475 (1000 cell/well in 150 μL/well); Huh7, MCF7 (2500 cell/well in 150 μL/well); HepG2, Hep3B, SKBR3 (3000 cell/well in 150 μL/well); PLC-PRF-5, Hep40 (5000 cell/well in 150 μL/well); MDA-MB-231, MDA-MB-468, MCF10A (6000 cell/well in 150 μL/well); and ZR-75 (7500 cell/well in 150 μL/well) were cultured in 96-well plates and were inoculated in an incubator for 24 hours. […] The protein-bound SRB was solubilized with 10 mM Tris-base (Sigma) and their absorbance was measured with a 96-well plate reader at 515 nm wavelength (ELx800, Biotek). The IC50 values of compounds were calculated in comparison with control group DMSO. […]

[1] = system: 22 cancer cells of the NCI 60 cell line panel; test: NCI-60 single-dose screen, text summary; type: cell-based; conditions: against 22 cancer cells, read-out: growth inhibition (GI) values in the range
Procedure: Moreover, in vitro single-dose anticancer screening of 11 and 85 at 10 μM was performed utilizing the stable panel of 60 cell lines comprising 9 different cancer types at the National Cancer Institute (NCI) under the Developmental Therapeutics Program (Table S1).[31]

[2] = system: hepatocellular carcinoma and breast cancer cell lines; test: SRB cytotoxicity, cell line panel; type: cell-based; conditions: Homo sapiens, range over hepatocellular carcinoma and breast cancer cell lines
Procedure: as §2

Mahlavu = test: SRB cytotoxicity assay; type: cell-based, human; conditions: Homo sapiens, Mahlavu, 72 h, 72 h treatment
In short: (§3)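 Cells seeded 24 h before 72 h compound exposure, 40 to 2.5 μM (or 2.5 to 0.15 μM for compounds below 2.5 μM). TCA-fixed, stained with sulforhodamine B, absorbance at 515 nm. IC50 relative to DMSO control; fits with R^2 above 0.9 accepted.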

Huh7 = test: SRB cytotoxicity assay; type: cell-based, human; conditions: 72 h treatment
In short: as §3

MCF7 = test: SRB cytotoxicity assay; type: cell-based, human; conditions: 72 h treatment
In short: as §3

MDA-MB-231 xenografts = test: MDA-MB-231 breast cancer xenograft; type: in vivo, mouse; conditions: nude mice, 40 mg/kg oral, twice a week, 4 weeks
Procedure: Mahlavu cells (10 × 10^6 cells/mouse) prepared in 150 μL of DMEM were injected subcutaneously to the flank of 6–8 weeks old male athymic nude mice, while MDA-MB-231 cells (2 × 10^6cells/mouse) in 1:1 DMEM and matrigel were injected into mammary fat pad (MFP) of 6–8 weeks old female athymic nude mice. Tumor volume and mouse weight were measured twice a week using calipers. When the tumor volume reached ∼150 mm^3, xenografts were randomized into groups (6 mice per group), and the mice were administered subsequently with 11 or 85 (40 mg/kg in 0.5% hydroxypropyl methylcellulose plus 1% Tween 80) or vehicle by gavage feeding (3–4 days/week) for 4 weeks. The mice were sacrificed 30 days after initiation of the compound treatment and tumors were collected. Two-way ANOVA was performed for statistical significance by GraphPad Prism. All of the mice were maintained under a temperature-controlled environment with a 12 h light/dark cycle and received a standard diet and water ad libitum.

Structure (SMILES)	IC50 (SNU475)	IC50 (Hep3B)	IC50 (MDA-MB231)	IC50 (HepG2)	IC50 (SKBR3)	PARP cleavage (PARP)	IC50 (MCF10A)	inhibition at 10 µM [1]	IC50 [2]	IC50 (Mahlavu)	IC50 (Huh7; Homo sapiens, Huh-7, 72 h)	IC50 (MCF7; Homo sapiens, MCF7, 72 h)	decrease in tumor volumes as compared to the control group (MDA-MB-231 xenografts)	IC50 (Huh7)	IC50 (MCF7)
Cc1ccccc1COc1ccc(-c2noc(C)c2-c2ccc(Cl)cc2)cc1 [compound 11, 4-(4-Chlorophenyl)-5-methyl-3-(4-((2-methylbenzyl)oxy)phenyl)isoxazole]	1700 nM	3000 nM	2000 nM	2100 nM	3500 nM	increase in PARP cleavage	12100 nM	45 to 100%	700 to 9500 nM	3200 nM	1300 nM	3800 nM	~50%		
Cc1ccccc1COc1ccc(-c2ccnn2-c2ccc(Cl)cc2)cc1 [compound 85, 1-(4-Chlorophenyl)-5-(4-((2-methylbenzyl)oxy)phenyl)-1H-pyrazole]	1500 nM	7900 nM	900 nM	1400 nM	1800 nM	increase in PARP cleavage	7600 nM	45 to 100%	700 to 9500 nM	3700 nM	< 1000 nM	< 1000 nM	~50%	700 nM	900 nM
